Series [1] can be described thus: 4-week repeated dose toxicity study in cynomolgus monkeys. It is filed as in vivo. The procedure: (§1) Compound I has been tested in numerous preclinical studies. Data from the 4-week repeated dose toxicity study in rats and 4-week repeated dose toxicity study in cynomolgus monkeys determined STD10 in rats to be 30 mg/kg/day and the HNSTD in cynomolgus monkeys to be 3 mg/kg/day. Human equivalent doses based on body surface area conversion (conversion factors: 0.16 for rat, 0.32 for monkey) of the STD10 in rats and the HNSTD in cynomolgus monkeys are 4.8 mg/kg and 0.96 mg/kg, respectively. For a person of 60 kg body weight, one tenth of the rat STD10 is 28.8 mg (4.8 mg/kg× 1/10×60 kg) and one sixth of the HNSTD is 9.6 mg (0.96 mg/kg×⅙×60 kg). Cynomolgus monkey is the more sensitive species. Therefore, based on cynomolgus monkey HNSTD, the starting dose in human is judged to be 9.6 mg/participant once daily (QD) given orally (actual starting dose will be 10 mg based on 10 mg tablet strength).

The nature of series [2]: 4-week repeated dose toxicity study in rats. The class given is in vivo. As to the method: as §1
The test system of series [3] is syngeneic mouse models (inflamed tumor and TIL-poor tumor models). As to the kind of experiment: Antitumor efficacy in syngeneic mouse tumor models. It is filed as in vivo.
Series [4] in a line: Nonclinical safety assessments. The class given is in vivo.
Series [5] has as its target DGKζ (Homo sapiens, UniProt Q13574). As to the kind of experiment: Nonclinical pharmacology: inhibition of DGKζ activity. It is filed as biochemical. Conditions: nonclinical pharmacology studies.
For series [6], the system named is T cell. As to the kind of experiment: Nonclinical pharmacology: DAG downstream pathway and T cell activation upon TCR stimulation. It is filed as cell-based.
The test system of series [7] is peripheral blood mononuclear cells (PBMCs). In words: Preclinical in vitro CD69 expression by PBMCs after TCR mediated stimulation. It is filed as cell-based. Conditions: after the TCR mediated stimulation. The text has this:
The whole blood samples will be collected from the treated patients to evaluate pharmacodynamics effects of the Compound I. The preclinical in vitro studies have identified CD69 expression by peripheral blood mononuclear cells (PBMCs) as the best pharmacodynamic biomarker candidate. The CD69 is early activation biomarker expressed by many immune cells including T-cells. […] To evaluate the pharmacodynamics effect of Compound I, the PBMCs will be isolated and stimulated in vitro by CD3/CD28; the expression of the CD69 will be measured by flow cytometry.

Chain of DGKζ (Q13574 whole entry, species assumed): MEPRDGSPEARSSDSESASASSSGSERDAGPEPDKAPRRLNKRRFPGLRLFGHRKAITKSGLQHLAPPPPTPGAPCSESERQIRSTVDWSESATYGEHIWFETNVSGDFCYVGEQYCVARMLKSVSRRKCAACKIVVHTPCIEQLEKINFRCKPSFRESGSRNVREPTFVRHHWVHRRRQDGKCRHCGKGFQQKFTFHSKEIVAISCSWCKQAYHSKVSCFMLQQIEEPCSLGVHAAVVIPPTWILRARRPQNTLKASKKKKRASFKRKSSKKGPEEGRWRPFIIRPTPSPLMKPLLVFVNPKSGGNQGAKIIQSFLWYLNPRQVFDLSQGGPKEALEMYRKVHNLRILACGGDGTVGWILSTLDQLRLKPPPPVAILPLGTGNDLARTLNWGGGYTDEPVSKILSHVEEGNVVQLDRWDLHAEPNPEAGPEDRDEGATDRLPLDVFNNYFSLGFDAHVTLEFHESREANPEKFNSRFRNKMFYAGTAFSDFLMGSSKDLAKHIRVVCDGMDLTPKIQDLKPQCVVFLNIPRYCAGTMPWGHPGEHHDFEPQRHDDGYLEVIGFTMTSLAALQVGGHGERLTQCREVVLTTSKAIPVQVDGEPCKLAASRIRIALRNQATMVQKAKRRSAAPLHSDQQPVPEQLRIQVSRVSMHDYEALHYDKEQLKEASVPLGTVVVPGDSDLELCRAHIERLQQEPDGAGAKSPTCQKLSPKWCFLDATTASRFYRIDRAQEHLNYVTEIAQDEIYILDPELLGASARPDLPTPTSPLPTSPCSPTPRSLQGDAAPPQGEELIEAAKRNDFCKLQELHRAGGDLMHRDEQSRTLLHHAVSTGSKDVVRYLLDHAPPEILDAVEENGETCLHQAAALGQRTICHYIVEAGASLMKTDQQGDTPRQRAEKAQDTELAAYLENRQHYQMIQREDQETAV

Consider `CNC[C@H]1CN(c2c(NC(=O)c3ccn(-c4ccnnc4)n3)ccc(Oc3ccccc3F)c2C(F)(F)F)CCN1C` [Compound I, N-[4-(2-Fluorophenoxy)-2-{(3S)-4-methyl-3-[(methylamino)methyl]piperazin-1-yl}-3-(trifluoromethyl)phenyl]-1-(pyridazin-4-yl)-1H-pyrazole-3-carboxamide], for which the “Human equivalent dose of the HNSTD in cynomolgus monkeys” value in series [1] (body surface area conversion, factor 0.32 for monkey) stood at 0.96 mg/kg. This compound registered an HNSTD in series [1] (cynomolgus monkeys, 4-week repeated dose) of 3 mg/kg/day. In addition, in series [2] (body surface area conversion, factor 0.16 for rat), the “Human equivalent dose of the STD10 in rats” value was determined as 4.8 mg/kg. Besides, the STD10 in series [2] (rats, 4-week repeated dose) was 30 mg/kg/day. Besides, the Anti-tumor efficacy entry in series [3] (anti-PD-1 poor-responsive syngeneic mouse models as well as responsive models) is on record as “demonstrated”. For the same compound, the antitumor efficacy entry in series [3] (oral administration, inflamed tumor and TIL-poor tumor models) is recorded as “demonstrated antitumor efficacy”. The nonclinical safety findings entry in series [4] was “risk of effect on body weight, gastrointestinal tract, electrocardiogram (ECG) parameters, hemodynamic and body temperature, lymphohematopoietic system and reproductive toxicity”. In series [5], the DGKζ activity result was “inhibits DGKζ activity”. In addition, the “activation of DAG downstream pathways and T cell activation” value in series [6] is recorded as “enhances activation of DAG downstream pathways as well as T cell activation”. Further, the “expression of CD69” value in series [7] was “induces increased expression of CD69”.

These data come from patent US20250312341A1, “METHODS FOR TREATING PATIENTS WITH LOCALLY ADVANCED AND/OR METASTATIC SOLID TUMORS USING A DGK ZETA INHIBITOR” (ASTELLAS PHARMA INC., priority 2022, published 2025).
